# In ChEMBL document CHEMBL1147114, “Fluoroquinolone resistance in Haemophilus influenzae is associated with hypermutability” (2007):
# Tested on: Haemophilus influenzae
# Test: Antimicrobial susceptibility against Haemophilus influenzae C2 isolate with GyrA Asp88Asn, AcrR Leu31His and Arg34Glu mutation
# Type: functional
row,SMILES,MIC [µg/mL]
1,O=C(O)c1cn(C2CC2)c2cc(N3CCNCC3)c(F)cc2c1=O [CIPROFLOXACIN],2
2,C[C@H]1COc2c(N3CCN(C)CC3)c(F)cc3c(=O)c(C(=O)O)cn1c23.C[C@H]1COc2c(N3CCN(C)CC3)c(F)cc3c(=O)c(C(=O)O)cn1c23.O [LEVOFLOXACIN],2

# Tested on: Haemophilus influenzae
# Test: Antimicrobial susceptibility against Haemophilus influenzae D2 isolate with GyrA Ser84Tyr, ParC Glu88Lys and AcrR Leu31His, Ile121Val and Gln134Lys mutation
# Type: functional
row,SMILES,MIC [µg/mL]
1,O=C(O)c1cn(C2CC2)c2cc(N3CCNCC3)c(F)cc2c1=O [CIPROFLOXACIN],4
2,C[C@H]1COc2c(N3CCN(C)CC3)c(F)cc3c(=O)c(C(=O)O)cn1c23.C[C@H]1COc2c(N3CCN(C)CC3)c(F)cc3c(=O)c(C(=O)O)cn1c23.O [LEVOFLOXACIN],2

# Tested on: Haemophilus influenzae
# Test: Antimicrobial susceptibility against Haemophilus influenzae A3 isolate with GyrA Glu83Cys, ParC Ser84Arg and AcrR 97stop codon mutation
# Type: functional
row,SMILES,MIC [µg/mL]
1,O=C(O)c1cn(C2CC2)c2cc(N3CCNCC3)c(F)cc2c1=O [CIPROFLOXACIN],2
2,C[C@H]1COc2c(N3CCN(C)CC3)c(F)cc3c(=O)c(C(=O)O)cn1c23.C[C@H]1COc2c(N3CCN(C)CC3)c(F)cc3c(=O)c(C(=O)O)cn1c23.O [LEVOFLOXACIN],0.5

# Tested on: Haemophilus influenzae
# Test: Antimicrobial susceptibility against Haemophilus influenzae A isolate with GyrA Glu83Cys and AcrR 97stop codon mutation
# Type: functional
row,SMILES,MIC [µg/mL]
1,O=C(O)c1cn(C2CC2)c2cc(N3CCNCC3)c(F)cc2c1=O [CIPROFLOXACIN],0.01
2,C[C@H]1COc2c(N3CCN(C)CC3)c(F)cc3c(=O)c(C(=O)O)cn1c23.C[C@H]1COc2c(N3CCN(C)CC3)c(F)cc3c(=O)c(C(=O)O)cn1c23.O [LEVOFLOXACIN],0.03

# Tested on: Haemophilus influenzae
# Test: Antimicrobial susceptibility against Haemophilus influenzae D3 isolate with GyrA Ser84Tyr, ParC Glu88Lys and AcrR Leu31His, Ile121Val and Gln134Lys mutation
# Type: functional
row,SMILES,MIC [µg/mL]
1,O=C(O)c1cn(C2CC2)c2cc(N3CCNCC3)c(F)cc2c1=O [CIPROFLOXACIN],8
2,C[C@H]1COc2c(N3CCN(C)CC3)c(F)cc3c(=O)c(C(=O)O)cn1c23.C[C@H]1COc2c(N3CCN(C)CC3)c(F)cc3c(=O)c(C(=O)O)cn1c23.O [LEVOFLOXACIN],4

# Tested on: Haemophilus influenzae
# Test: Antimicrobial susceptibility against Haemophilus influenzae C isolate with AcrR Leu31His and Arg34Glu mutation
# Type: functional
row,SMILES,MIC [µg/mL]
1,O=C(O)c1cn(C2CC2)c2cc(N3CCNCC3)c(F)cc2c1=O [CIPROFLOXACIN],0.01
2,C[C@H]1COc2c(N3CCN(C)CC3)c(F)cc3c(=O)c(C(=O)O)cn1c23.C[C@H]1COc2c(N3CCN(C)CC3)c(F)cc3c(=O)c(C(=O)O)cn1c23.O [LEVOFLOXACIN],0.03

# Tested on: Haemophilus influenzae
# Test: Antimicrobial susceptibility against Haemophilus influenzae A2 with GyrA Glu83Cys, ParC Ser84Arg and AcrR 97stop codon mutation
# Type: functional
row,SMILES,MIC [µg/mL]
1,O=C(O)c1cn(C2CC2)c2cc(N3CCNCC3)c(F)cc2c1=O [CIPROFLOXACIN],0.25
2,C[C@H]1COc2c(N3CCN(C)CC3)c(F)cc3c(=O)c(C(=O)O)cn1c23.C[C@H]1COc2c(N3CCN(C)CC3)c(F)cc3c(=O)c(C(=O)O)cn1c23.O [LEVOFLOXACIN],0.5

# Tested on: Haemophilus influenzae
# Test: Antimicrobial susceptibility against Haemophilus influenzae A1 isolate with GyrA Glu83Cys, ParC Ser84Arg and AcrR 97stop codon mutation
# Type: functional
row,SMILES,MIC [µg/mL]
1,O=C(O)c1cn(C2CC2)c2cc(N3CCNCC3)c(F)cc2c1=O [CIPROFLOXACIN],0.25
2,C[C@H]1COc2c(N3CCN(C)CC3)c(F)cc3c(=O)c(C(=O)O)cn1c23.C[C@H]1COc2c(N3CCN(C)CC3)c(F)cc3c(=O)c(C(=O)O)cn1c23.O [LEVOFLOXACIN],0.25

# Tested on: Haemophilus influenzae
# Test: Antimicrobial susceptibility against Haemophilus influenzae A4 isolate with GyrA Glu83Cys, ParC Ser84Arg and AcrR 97stop codon mutation
# Type: functional
row,SMILES,MIC [µg/mL]
1,O=C(O)c1cn(C2CC2)c2cc(N3CCNCC3)c(F)cc2c1=O [CIPROFLOXACIN],4
2,C[C@H]1COc2c(N3CCN(C)CC3)c(F)cc3c(=O)c(C(=O)O)cn1c23.C[C@H]1COc2c(N3CCN(C)CC3)c(F)cc3c(=O)c(C(=O)O)cn1c23.O [LEVOFLOXACIN],4

# Tested on: Haemophilus influenzae
# Test: Antimicrobial susceptibility against Haemophilus influenzae B2 isolate with GyrA Asp88Tyr and AcrR Leu31His mutation
# Type: functional
row,SMILES,MIC [µg/mL]
1,O=C(O)c1cn(C2CC2)c2cc(N3CCNCC3)c(F)cc2c1=O [CIPROFLOXACIN],0.25
2,C[C@H]1COc2c(N3CCN(C)CC3)c(F)cc3c(=O)c(C(=O)O)cn1c23.C[C@H]1COc2c(N3CCN(C)CC3)c(F)cc3c(=O)c(C(=O)O)cn1c23.O [LEVOFLOXACIN],0.25

# Tested on: Haemophilus influenzae
# Test: Antimicrobial susceptibility against Haemophilus influenzae D isolate with AcrR Leu31His, Ile121Val and Gln134Lys mutation
# Type: functional
row,SMILES,MIC [µg/mL]
1,O=C(O)c1cn(C2CC2)c2cc(N3CCNCC3)c(F)cc2c1=O [CIPROFLOXACIN],0.01
2,C[C@H]1COc2c(N3CCN(C)CC3)c(F)cc3c(=O)c(C(=O)O)cn1c23.C[C@H]1COc2c(N3CCN(C)CC3)c(F)cc3c(=O)c(C(=O)O)cn1c23.O [LEVOFLOXACIN],0.03

# Tested on: Haemophilus influenzae
# Test: Antimicrobial susceptibility against Haemophilus influenzae C1 isolate with GyrA Asp88Asn, AcrR Leu31His and Arg34Glu mutation
# Type: functional
row,SMILES,MIC [µg/mL]
1,O=C(O)c1cn(C2CC2)c2cc(N3CCNCC3)c(F)cc2c1=O [CIPROFLOXACIN],0.12
2,C[C@H]1COc2c(N3CCN(C)CC3)c(F)cc3c(=O)c(C(=O)O)cn1c23.C[C@H]1COc2c(N3CCN(C)CC3)c(F)cc3c(=O)c(C(=O)O)cn1c23.O [LEVOFLOXACIN],0.12

# Tested on: Haemophilus influenzae
# Test: Antimicrobial susceptibility against Haemophilus influenzae D4 isolate with GyrA Ser84Tyr, ParC Glu88Lys and AcrR Leu31His, Ile121Val and Gln134Lys mutation
# Type: functional
row,SMILES,MIC [µg/mL]
1,O=C(O)c1cn(C2CC2)c2cc(N3CCNCC3)c(F)cc2c1=O [CIPROFLOXACIN],16
2,C[C@H]1COc2c(N3CCN(C)CC3)c(F)cc3c(=O)c(C(=O)O)cn1c23.C[C@H]1COc2c(N3CCN(C)CC3)c(F)cc3c(=O)c(C(=O)O)cn1c23.O [LEVOFLOXACIN],4

# Tested on: Haemophilus influenzae
# Test: Antimicrobial susceptibility against Haemophilus influenzae B1 isolate with GyrA Asp88Tyr and AcrR Leu31His mutation
# Type: functional
row,SMILES,MIC [µg/mL]
1,O=C(O)c1cn(C2CC2)c2cc(N3CCNCC3)c(F)cc2c1=O [CIPROFLOXACIN],0.12
2,C[C@H]1COc2c(N3CCN(C)CC3)c(F)cc3c(=O)c(C(=O)O)cn1c23.C[C@H]1COc2c(N3CCN(C)CC3)c(F)cc3c(=O)c(C(=O)O)cn1c23.O [LEVOFLOXACIN],0.25

# Tested on: Haemophilus influenzae
# Test: Antimicrobial susceptibility against Haemophilus influenzae C3 isolate with GyrA Asp88Asn, ParC Ser84Ile, AcrR Leu31His and Arg34Glu mutation
# Type: functional
row,SMILES,MIC [µg/mL]
1,O=C(O)c1cn(C2CC2)c2cc(N3CCNCC3)c(F)cc2c1=O [CIPROFLOXACIN],8
2,C[C@H]1COc2c(N3CCN(C)CC3)c(F)cc3c(=O)c(C(=O)O)cn1c23.C[C@H]1COc2c(N3CCN(C)CC3)c(F)cc3c(=O)c(C(=O)O)cn1c23.O [LEVOFLOXACIN],8

# Tested on: Haemophilus influenzae
# Test: Antimicrobial susceptibility against Haemophilus influenzae D1 isolate with GyrA Ser84Tyr, ParC Glu88Lys and AcrR Leu31His, Ile121Val and Gln134Lys mutation
# Type: functional
row,SMILES,MIC [µg/mL]
1,O=C(O)c1cn(C2CC2)c2cc(N3CCNCC3)c(F)cc2c1=O [CIPROFLOXACIN],1
2,C[C@H]1COc2c(N3CCN(C)CC3)c(F)cc3c(=O)c(C(=O)O)cn1c23.C[C@H]1COc2c(N3CCN(C)CC3)c(F)cc3c(=O)c(C(=O)O)cn1c23.O [LEVOFLOXACIN],0.5

# Tested on: Haemophilus influenzae
# Test: Antimicrobial susceptibility against Haemophilus influenzae B isolate with AcrR Leu31His mutation
# Type: functional
row,SMILES,MIC [µg/mL]
1,O=C(O)c1cn(C2CC2)c2cc(N3CCNCC3)c(F)cc2c1=O [CIPROFLOXACIN],0.03
2,C[C@H]1COc2c(N3CCN(C)CC3)c(F)cc3c(=O)c(C(=O)O)cn1c23.C[C@H]1COc2c(N3CCN(C)CC3)c(F)cc3c(=O)c(C(=O)O)cn1c23.O [LEVOFLOXACIN],0.03
